Columns and labels:
[1] = system: SHIV162p3 viral strain (B-R5); test: Antiviral activity on TZM-bl cells, SHIV162p3 strain; format: cell-based; conditions: luciferase, 48 h, clade-tropism B-R5
Description: (§1) The antiviral activity of the tested compounds was determined by pre-incubating 10^4 TZM-bl cells/well in a 96-well plate for 30 min at 37° C. and 5% CO2 with or without a serial dilution of the compound. Next, 200 TCID50 of viruses were added to each well and cultures were incubated for 48 h before luciferase activity was quantified. Each compound was tested in triplicate in a single experiment. Antiviral activity was expressed as the percentage of viral inhibition compared to the untreated control and plotted against the compound concentration. Next, non-linear regression analysis was used to calculate the 50% effective concentration (EC50).
(§2) The miniCD4 conjugates were then evaluated for their antiviral activity on TZM-bl cells that express Luciferase under the control of the HIV LTR (collaboration G. Vanham, Anvers) according to the protocol described above. All antiviral results are reported in the table below in the form of EC50 values (nM).

[2] = system: Bal viral strain (B-R5); test: microbe, parasite or virus in culture; format: cell-based, HIV; conditions: Human immunodeficiency virus 1, BAL; TZM-bl cells, luciferase, 48 h; clade-tropism B-R5
Description: as §1, §2

[3] = system: Ca10-3 (CRF01) viral strain (AE-X4); test: microbe, parasite or virus in culture; format: cell-based, HIV; conditions: Human immunodeficiency virus 1, TZM-bl, 48 h, read-out: EC50, viral strain Ca10-3 (CRF01)
Description: as §1, §2

[4] = system: IIIB viral strain (B-X4); test: microbe, parasite or virus in culture; format: cell-based, HIV; conditions: Human immunodeficiency virus 1, IIIB; TZM-bl cells, luciferase, 48 h; clade-tropism B-X4
Description: as §1, §2

[5] = system: MN viral strain (B-X4); test: microbe, parasite or virus in culture; format: cell-based, HIV; conditions: Human immunodeficiency virus 1; TZM-bl cells, luciferase, 48 h; clade-tropism B-X4
Description: as §1, §2

[6] = system: MP568 (CRF02) viral strain (AG-R5); test: microbe, parasite or virus in culture; format: cell-based, HIV; conditions: Human immunodeficiency virus 1, TZM-bl, 48 h, read-out: EC50, viral strain MP568 (CRF02)
Description: as §1, §2

[7] = system: SF162 viral strain (B-R5); test: microbe, parasite or virus in culture; format: cell-based, HIV; conditions: Human immunodeficiency virus 1; TZM-bl cells, luciferase, 48 h; clade-tropism B-R5
Description: as §1, §2

[8] = system: VI1888 (CRF01) viral strain (AE-R5); test: microbe, parasite or virus in culture; format: cell-based, HIV; conditions: Human immunodeficiency virus 1, TZM-bl, 48 h, read-out: EC50, viral strain VI1888 (CRF01)
Description: as §1, §2

[9] = system: VI820 viral strain (A-X4R5); test: microbe, parasite or virus in culture; format: cell-based, HIV; conditions: Human immunodeficiency virus 1, TZM-bl, 48 h, read-out: EC50, viral strain VI820
Description: as §1, §2

[10] = system: VI824 viral strain (D-R5); test: microbe, parasite or virus in culture; format: cell-based, HIV; conditions: Human immunodeficiency virus 1, TZM-bl, 48 h, read-out: EC50, viral strain VI824
Description: as §1, §2

[11] = system: VI829 viral strain (C-R5); test: microbe, parasite or virus in culture; format: cell-based, HIV; conditions: Human immunodeficiency virus 1; TZM-bl cells, luciferase, 48 h; clade-tropism C-R5
Description: as §1, §2

[12] = system: p246F10 viral strain (C-R5); test: microbe, parasite or virus in culture; format: cell-based, HIV; conditions: Human immunodeficiency virus 1, TZM-bl, 48 h, read-out: EC50, viral strain p246F10
Description: as §1, §2

[13] = system: pREJO.c/2864 cl2 viral strain (B-R5); test: microbe, parasite or virus in culture; format: cell-based, HIV; conditions: Human immunodeficiency virus 1, TZM-bl, 48 h, read-out: EC50, viral strain pREJO.c/2864 cl2
Description: as §1, §2

[14] = Cytotoxic activity, WST-1 cell proliferation assay; format: cell-based; conditions: human
Description: Cytotoxicity was determined using the water-soluble tetrazolium-1 (WST-1) cell proliferation assay, which is based on the cleavage of the tetrazolium salt WST-1 to a formazan dye by cellular dehydrogenases. Because this bioreduction is dependent on the glycolytic production of NAD(P)H in viable cells, the amount of formazan dye formed is correlated directly to the number of viable cells in a culture. Quantification is performed by measuring absorbance at 450 nm in a multiwell plate reader. An amount of 10^4 cells was plated per well in a 96-well plate, and a serial dilution of compound was added. Forty eight hours later, cell proliferation reagent was added and cell viability was measured compared to untreated control cultures. Cell viability was plotted against the compound concentration, and nonlinear regression analysis was performed to evaluate the 50% cytotoxic concentration (CC50).
The miniCD4 conjugates were then evaluated for their cytotoxic activity according to the protocol described above. All cytotoxic results are reported in the table below in the form of CC50 values (nM).

Cc1cc(C)c(Nc2ccnc(Nc3ccc(C#N)cc3)n2)c(C)c1 [Dapivirine (TMC120), Dapivirine]
EC50 [1]: > 1000 nM | EC50 [2]: 1.65 nM | EC50 [3]: 1.3 nM | EC50 [4]: 0.84 nM | EC50 [5]: 1.5 nM | EC50 [6]: 1.1 nM | EC50 [7]: 1.3 nM | EC50 [8]: 2.1 nM | EC50 [9]: 1.95 nM | EC50 [10]: 1.2 nM | EC50 [11]: 1.3 nM | EC50 [12]: 1.4 nM | EC50 [13]: 1.6 nM | CC50 at 48 h [14]: 2520 nM
